Assay results published in patent publication US6638974B1, “Ascorbyl esters for the treatment of cancer” (University of South Florida, priority 1999, dated 2003).
Like-named read-outs stand apart in the source and are kept apart here.

Key:
HT29 cells [1] = assay: MTT cell viability assay, HT29; type: cell-based, human; settings: for effect on HT29 cells (MTT): similar concentrations and incubation times as As-P (24 and 48 hours); for inhibition at 150 µM: Homo sapiens, HT-29, 150 μM (5 FU at a similar concentration), read-out: inhibition of HT29 cell growth (MTT)
Method: (§1) HT-29, a human colon adenocarcinoma cell line, and CCD 18, a normal colon fibroblast, were obtained from the American Type Culture Collection (Rockville, Md.). The cells were grown in RPM1 1640 medium containing HEPES (20 mM), fetal bovine serum (10%), sodium bicarbonate (1 g/L), and penicillin (10 U/ml), streptomycin (10 ug/ml) at 37° C. in 5% CO2 humidified atmosphere.
(§2) The effect of various concentrations of As-P, ascorbate, palmitate or 5-fluorouracil (5 FU) on the viability and/or proliferation of HT29 or CCD 18 cells were evaluated. Cells were seeded in 96-well culture plates at 1×10^4 cells/well. The following day, As-P, ascorbate, palmitate or 5 FU were added at various concentrations. Cell viability was evaluated by the MTT assay 24 hours or 48 hours after the addition of the compounds. The effect of As-P on the cell cycle of HT29 cells was also investigated by flow cytometry.

CCD 18 cells = assay: MTT cell viability assay, CCD 18; type: cell-based, human; settings: for effect on CCD18 fibroblasts (MTT): similar concentrations and incubation times as As-P (24 and 48 hours); for inhibition at 150 µM: Homo sapiens, Fibroblast, read-out: inhibitory effect on CCD 18 fibroblasts (MTT)
Method: as §1, §2

Advanced colon cancer = settings: single agent; cited from earlier work
HT29 cells [2] = assay: Cell cycle analysis by flow cytometry, HT29; type: cell-based, human; settings: 24 hours
Method: HT29 cells were seeded into 25 cm^2 flasks at a density of 1×10^4 cells/ml. 72 hours after seeding, As-P was added to HT29 cells in culture at a final concentration of 50 μM, 100 μM, 150 μM. Control cells received medium only. After 24 hours of incubation, cells were harvested and processed for flow cytometry DNA analysis.

## O=C1O[C@H]([C@@H](O)CO)C(O)=C1O [ascorbate, reference compound]
HT29 cells [1]
  effect on HT29 cells (MTT): no inhibitory effect
CCD 18 cells
  effect on CCD18 fibroblasts (MTT): no inhibitory effect

## O=c1[nH]cc(F)c(=O)[nH]1 [5 FU, 5-Fluorouracil, reference compound]
Advanced colon cancer
  response rate: 10-20%
HT29 cells [1]; 24 hours
  effect on growth of HT29 cells at 24 hours: little or no inhibitory effect
  inhibition at 150 µM: 14%
HT29 cells [1]; 48 hours, concentration not given
  inhibition of growth of HT29 cells at 48 hours: approximately 40%
HT29 cells [1]; 48 hours
  inhibition at 150 µM: 40%
CCD 18 cells; 24 hours
  effect on growth of CCD 18 fibroblasts at 24 hours: little or no inhibitory effect
CCD 18 cells; 48 hours
  effect on CCD 18 cells at 48 hours: little effect

## CCCCCCCCCCCCCCCC(=O)O [palmitate, reference compound]
HT29 cells [1]
  effect on HT29 cells (MTT): no inhibitory effect
CCD 18 cells
  effect on CCD18 fibroblasts (MTT): no inhibitory effect

## CCCCCCCCCCCCCCCC(=O)OC[C@H](O)[C@H]1OC(=O)C(O)=C1O [As-P, L-Ascorbyl 6-palmitate]
HT29 cells [1]; 24 hours
  inhibition at 150 µM: 73%
HT29 cells [1]; 48 hours
  inhibition at 150 µM: 89%
HT29 cells [1]; above 100 μM
  effect on HT29 cells at higher concentrations: cytotoxic effect
HT29 cells [1]; below 100 μM
  effect on HT29 cell growth at lower concentrations: stimulatory effect
HT29 cells [1]; higher concentrations (>125 μM)
  effect on HT29 cell growth: great inhibitory effect
HT29 cells [1]; lower concentrations (<75 μM)
  effect on HT29 cell growth: slight stimulating effect
HT29 cells [2]; HT29, 50 μM As-P
  % G2 + M: 7.8%
  % G4/G1: 57.1%
  % S: 35.1%
HT29 cells [2]; HT29, 100 μM As-P
  % G2 + M: 4.3%
  % G4/G1: 73.1%
  % S: 22.6%
HT29 cells [2]; HT29, 150 μM As-P
  % G2 + M: 3.2%
  % G4/G1: 86.1%
  % S: 10.7%
CCD 18 cells; 24 hours
  inhibition at 150 µM: ~20%
CCD 18 cells; 48 hours
  inhibition at 150 µM: ~20%
CCD 18 cells; lower concentrations
  effect on CCD 18 fibroblasts at lower concentrations: stimulatory effect
